The source of these data is ChEMBL document CHEMBL3525899, “Identification of the cytochrome P450 and other enzymes involved in the in vitro oxidative metabolism of a novel antidepressant, Lu AA21004” (Drug Metab Dispos, 2012).

For series [1], the target named is T1, Cytochrome P450 2B6 (Homo sapiens, UniProt P20813).
T1 sequence (P20813 whole entry): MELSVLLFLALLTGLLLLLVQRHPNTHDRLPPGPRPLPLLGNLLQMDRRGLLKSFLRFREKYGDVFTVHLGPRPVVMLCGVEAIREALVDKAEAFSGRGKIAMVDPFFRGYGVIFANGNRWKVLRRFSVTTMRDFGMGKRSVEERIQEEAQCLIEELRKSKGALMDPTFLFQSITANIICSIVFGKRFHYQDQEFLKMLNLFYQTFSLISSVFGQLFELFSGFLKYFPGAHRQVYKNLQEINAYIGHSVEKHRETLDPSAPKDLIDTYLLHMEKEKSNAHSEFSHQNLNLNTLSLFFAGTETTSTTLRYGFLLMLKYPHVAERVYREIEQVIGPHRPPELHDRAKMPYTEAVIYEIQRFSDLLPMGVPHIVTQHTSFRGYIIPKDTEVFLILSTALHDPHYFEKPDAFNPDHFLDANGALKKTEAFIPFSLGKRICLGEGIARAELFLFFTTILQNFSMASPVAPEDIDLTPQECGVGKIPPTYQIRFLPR
The series can be described thus: Activity of human recombinant CYP2B6 expressed in microsomes isolated from human AHH-1 cells assessed as enzyme-mediated 4-(2-(2,4-dimethylphenylthio)phenyl)piperazin-1-ol formation at 8 to 50 uM after 120 mins by HPLC/MS-MS analysis in presence of NADPH regenerating system with NADP+. In kind it is ADME, cell-free. Particulars: 2 h.

Series [2] concerns the target T2, Cytochrome P450 1A2 (Homo sapiens, UniProt P05177).
T2 sequence (P05177 whole entry): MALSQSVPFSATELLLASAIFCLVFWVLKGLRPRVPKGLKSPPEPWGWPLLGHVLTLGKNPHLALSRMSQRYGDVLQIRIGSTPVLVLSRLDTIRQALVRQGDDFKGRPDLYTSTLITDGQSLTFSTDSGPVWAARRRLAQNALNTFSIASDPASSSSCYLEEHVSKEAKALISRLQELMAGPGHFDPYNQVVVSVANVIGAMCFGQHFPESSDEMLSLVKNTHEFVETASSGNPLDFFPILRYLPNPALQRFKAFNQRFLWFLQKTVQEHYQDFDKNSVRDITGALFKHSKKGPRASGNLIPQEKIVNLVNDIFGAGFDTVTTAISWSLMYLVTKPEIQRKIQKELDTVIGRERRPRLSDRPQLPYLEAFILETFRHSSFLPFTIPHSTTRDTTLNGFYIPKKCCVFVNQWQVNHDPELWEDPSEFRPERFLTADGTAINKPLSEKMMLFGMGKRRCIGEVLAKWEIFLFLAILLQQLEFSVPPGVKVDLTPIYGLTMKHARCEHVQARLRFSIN
Description: Activity of human recombinant CYP1A2 expressed in microsomes isolated from human AHH-1 cells assessed as enzyme-mediated 3-(2,4-dimethylphenylthio)-4-(piperazin-1-yl)phenol formation at 8 to 50 uM after 120 mins by HPLC/MS-MS analysis in presence of NADPH regenerating system with NADP+. In kind it is ADME, cell-free. Particulars: 2 h.

In series [3] the test system is Liver microsome. Description: Drug metabolism in pooled human liver microsomes at 100 uM after 30 to 180 mins by HPLC/MS-MS analysis in presence of NADPH regenerating system without NADP+. The format is ADME. (Liver microsomes are a subcellular fraction often used to study metabolism.)
Series [4] deals with Cytochrome P450 2C19 (Homo sapiens, UniProt P33261). Description: Activity of human recombinant CYP2C19 expressed in microsomes isolated from human AHH-1 cells assessed as enzyme-mediated (3-methyl-4-(2-(piperazin-1-yl)phenylthio)phenyl)methanol formation at 8 to 50 uM after 120 mins by HPLC/MS-MS analysis in presence of NADPH regenerating system with NADP+. Particulars: 2 h. The format is ADME, cell-free.
Chain of Cytochrome P450 2C19 (P33261 whole entry): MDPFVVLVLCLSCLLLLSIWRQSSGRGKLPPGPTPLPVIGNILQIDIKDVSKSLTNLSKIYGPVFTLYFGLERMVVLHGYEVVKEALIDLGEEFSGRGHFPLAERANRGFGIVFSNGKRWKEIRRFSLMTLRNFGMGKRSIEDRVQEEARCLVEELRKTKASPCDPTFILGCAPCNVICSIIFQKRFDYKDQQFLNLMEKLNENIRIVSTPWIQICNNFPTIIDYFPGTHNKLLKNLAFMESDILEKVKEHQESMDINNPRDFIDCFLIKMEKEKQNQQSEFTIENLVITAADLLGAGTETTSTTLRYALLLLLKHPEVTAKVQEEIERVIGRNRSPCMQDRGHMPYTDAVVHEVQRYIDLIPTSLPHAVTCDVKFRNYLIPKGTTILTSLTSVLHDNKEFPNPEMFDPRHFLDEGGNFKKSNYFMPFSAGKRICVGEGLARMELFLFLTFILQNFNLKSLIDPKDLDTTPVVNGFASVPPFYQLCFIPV

For `Br.Cc1ccc(Sc2ccccc2N2CCNCC2)c(C)c1` [VORTIOXETINE HYDROBROMIDE], the Drug metabolism entry in series [1] is on record as “metabolite_detected”; in series [2], “metabolite_not_detected”; in series [3], “metabolite_not_detected”; in series [4], “metabolite_detected”.
